Results as given in US20050192182A1, “Herbicidal mixtures based on substituted aryl ketones” (priority 2001, published 2005).

How the values were obtained:
[1] = tested on: Abutilon theophrasti; experiment: Post-emergence greenhouse spray test; assay type: in vivo; details: about 3 weeks
Description: (§1) The required amount of active compound or formulation is dissolved in a few milliliters (2-3 ml) of the solvent (acetone or DMF), an emulsifier (1 ml) is added, if required, and the mixture is diluted with water to the desired concentration.
(§2) Mixtures are prepared by mixing a predetermined dissolved amount of the first active compound with the required amount of the second active compound (and, if desired, with additional active compounds/formulations or other ingredients), and then diluting the mixture with water to the desired concentration.
(§3) In pre- and post-emergence experiments, a surfactant (Renex 36) is usually added, at a concentration of 0.1%, to the spray solution.
(§4) The amount of active compound or formulation is chosen such that the desired application rate per ha is achieved.
(§5) Test plants are grown under controlled conditions (temperature and light). Once the plants have reached a height of 5-15 cm, the test compound or the combination of test compounds is applied by spraying such that the particular amounts of active compound desired are applied per unit area. The concentration of the spray liquor is chosen such that the desired amounts of active compound are in each case applied in 500 1 of water/ha.
(§6) After the spray application, the vessels containing the plants are stored in a greenhouse under constant conditions with respect to light and temperature.
(§7) After about 3 weeks, the degree of damage to the plants is rated in % damage in comparison to the development of the untreated control.
(§8) The figures denote: • 0%=no damage (like untreated control) • 100%=total destruction/damage • a.i.=active ingredient Flufenacet Tested as 60 WG • (I-31)/(I-34) tested as active compounds • * values calculated according to Colby

[2] = tested on: Solanum nigrum; experiment: Post-emergence greenhouse spray test; assay type: in vivo; details: about 3 weeks
Description: as §1, §2, §3, §4, §5, §6, §7, §8

[3] = tested on: Amaranthus retroflexus; experiment: Post-emergence greenhouse spray test; assay type: in vivo; details: about 3 weeks
Description: as §1, §2, §3, §4, §5, §6, §7, §8

[4] = tested on: Chenopodium album; experiment: Post-emergence greenhouse spray test; assay type: in vivo; details: about 3 weeks
Description: as §1, §2, §3, §4, §5, §6, §7, §8

[5] = tested on: LIDPY; experiment: Test in transplanted paddy rice (greenhouse), water-surface application; assay type: in vivo, Lindernia; details: 3 weeks after application
From the text: (§9) Test in Transplanted Paddy Rice
(§10) To produce a preparation of active compound, 1 part by weight of an active compound combination according to the invention is mixed with the stated amount of solvent and, after addition of the stated amount of emulsifier, diluted with water to the desired concentration.
(§11) Vessels for planting (500 cm^2) are filled with soil from a rice field. In each case 3 rice plants (cultivar: Nipponbare, 2-3-leaf stage, height: about 15 cm) are planted into the center of the vessels for planting. Seeds of Cyperus, Echinochloa, Lindernia, Rotala and Elatine are sown into the same vessels for planting. The soil in the vessels is kept moist. After two days, each vessel for planting is flooded to a water depth of 2-3 cm.
(§12) Five days after the transplanting of the rice plants, the amount of active compound in the preparation described above is applied to the surface of the water in the vessels for planting using a pipette. The water depth in the vessels for planting is kept at 2-3 cm.
(§13) 3 weeks after the application of active compound, the efficacy is rated in % damage in comparison to the untreated control.
(§14) The figures denote • 0% no effect/damage (like untreated control) • 100% total destruction

[6] = tested on: ROTIN; experiment: as above; assay type: in vivo, Rotala; details: 3 weeks after application
From the text: as §9, §10, §11, §12, §13, §14

[7] = tested on: ECHSS; experiment: as above; assay type: in vivo, Echinochloa; details: 135 g/ha, 3 weeks after application
From the text: as §9, §10, §11, §12, §13, §14

[8] = tested on: ELTTP; experiment: as above; assay type: in vivo, Elatine; details: 3 weeks after application
From the text: as §9, §10, §11, §12, §13, §14

[9] = tested on: CYPDI; experiment: as above; assay type: in vivo, Cyperus; details: 135 g/ha, 3 weeks after application
From the text: as §9, §10, §11, §12, §13, §14

[10] = tested on: Digitaria sanguinalis; experiment: Post-emergence greenhouse spray test; assay type: in vivo; details: about 3 weeks
Description: as §1, §2, §3, §4, §5, §6, §7, §8

O=C1CC[C@@H](COc2c(Br)ccc(C(=O)C3C(=O)CCCC3=O)c2Br)N1 [Example I-31, (5S)-5-[[2,6-dibromo-3-[(2,6-dioxo-1-cyclohexyl)-carbonyl]-phenoxy]-methyl]-2-pyrrolidinone]
Abutilon theophrasti observed (% damage) ([1]; 15 g of ai/ha): 0%
Abutilon theophrasti observed (% damage) ([1]; 30 g of ai/ha): 10%
Solanum nigrum observed (% damage) ([2]; 30 g of ai/ha): 10%
Amaranthus retroflexus observed (% damage) ([3]; 8 g of ai/ha): 0%
Amaranthus retroflexus observed (% damage) ([3]; 15 g of ai/ha): 0%
Amaranthus retroflexus observed (% damage) ([3]; 30 g of ai/ha): 0%
Chenopodium album observed (% damage) ([4]; 15 g of ai/ha): 0%
Chenopodium album observed (% damage) ([4]; 30 g of ai/ha): 20%

CCN(C(=O)n1nnn(-c2ccccc2Cl)c1=O)C1CCCCC1 [fentrazamide, 4-(2-chloro-phenyl)-N-cyclohexyl-N-ethyl-4,5-dihydro-5-oxo-1H-tetrazole-1-carboxamide, reference compound]
efficacy in % damage, Compound (II) alone ([5]; 135 g/ha): 60%
efficacy in % damage, Compound (II) alone ([6]; 135 g/ha): 60%
efficacy in % damage, Compound (II) alone [7]: 70%
efficacy in % damage, Compound (II) alone ([8]; 135 g/ha): 60%
efficacy in % damage, Compound (II) alone [9]: 60%

Cn1nnn(CCOc2c(Cl)ccc(C(=O)C3C(=O)CCCC3=O)c2Cl)c1=O [Example I-22, 2-[2,4-dichloro-3-[2-(4-methyl-5-oxo-4,5-dihydro-1H-tetrazol-1-yl)-ethoxy]-benzoyl]-1,3-cyclohexanedione]
efficacy in % damage, Compound (I) alone ([5]; 30 g/ha): 70%
efficacy in % damage, Compound (I) alone ([6]; 30 g/ha): 70%
efficacy in % damage, Compound (I) alone ([8]; 30 g/ha): 60%

O=C1CC[C@@H](COc2c(Cl)ccc(C(=O)C3C(=O)CCCC3=O)c2Cl)N1 [Example I-34, (5S)-5-[[2,6-dichloro-3-[(2,6-dioxo-1-cyclohexyl)-carbonyl]-phenoxy]-methyl]-2-pyrrolidinone]
Digitaria sanguinalis observed (% damage) ([10]; 15 g of ai/ha): 0%
Digitaria sanguinalis observed (% damage) ([10]; 30 g of ai/ha): 0%
Amaranthus retroflexus observed (% damage) ([3]; 15 g of ai/ha): 0%
Amaranthus retroflexus observed (% damage) ([3]; 30 g of ai/ha): 0%
Chenopodium album observed (% damage) ([4]; 15 g of ai/ha): 90%
Chenopodium album observed (% damage) ([4]; 30 g of ai/ha): 90%

CC(C)N(C(=O)COc1nnc(C(F)(F)F)s1)c1ccc(F)cc1 [Flufenacet, N-(4-fluoro-phenyl)-N-i-propyl-2-(5-trifluoromethyl-1,3,4-thiadiazol-2-yl-oxy)-acetamide, reference compound]
Abutilon theophrasti observed (% damage) ([1]; 125 g of ai/ha): 0%
Solanum nigrum observed (% damage) ([2]; 125 g of ai/ha): 30%
Digitaria sanguinalis observed (% damage) ([10]; 125 g of ai/ha): 70%
Amaranthus retroflexus observed (% damage) ([3]; 125 g of ai/ha): 60%
Chenopodium album observed (% damage) ([4]; 125 g of ai/ha): 0%
